Measurements as given in publication PMC12668308, “A Novel Antimalarial Agent that Inhibits Protein Synthesis in Plasmodium falciparum” (Angewandte Chemie (International Ed. in English), 2025).

System: P. falciparum NF54 strain
Test: [3H]-hypoxanthine incorporation assay, asexual blood stage
Format: cell-based, Plasmodium falciparum
Conditions: for IC50: Plasmodium falciparum, NF54, asexual blood stage, mean ± s.d., read-out: PfNF54 IC50 ± s.d.
Experimental: P. falciparum asexual blood stage parasites were cultured in human red blood cells (RBC, Blutspende SRK, Zurich) at a hematocrit of 5% in RPMI 1640 medium. The RPMI 1640 medium (ThermoFisher Scientific #51800−043) was supplemented with the following: 24 mM NaHCO3 (pH 7.3, Sigma-Aldrich #31437−500G-R), 25 mM Hepes (Sigma-Aldrich #H4034−500G), 0.36 mM hypoxanthine (Sigma-Aldrich # H9377−25G), 100 µg mL^-1 neomycin (Sigma-Aldrich #N6386−100G) and 0.5% Albumax II (Thermo Fisher #11021−045). Additionally, 2 mM choline chloride (279 mg/L, Sigma-Aldrich #C7527−100G) was added to the culture to block the induction of sexual commitment as described. ^[31^] The RPMI 1640 medium and components were dissolved in water (Milli-Q purified), stirred for at least 3 h, and then sterile filtered (0.22 μm pore size) with a bottle top filter (Corning # 431118). Parasite cultures were maintained in an atmosphere of 3% O2, 4% CO2, and 93% N2 in air-tight chambers at 37 °C. The [^3H]-hypoxanthine incorporation assay was used to test compound activity in the specific parasite lines as described.^[32^] Briefly, compounds were dissolved in DMSO (10 mM) and diluted in a hypoxanthine-free culture medium. A limiting dilution was performed over a 64-fold range (6-step twofold dilution) in a 96-well plate in duplicates. For every starting concentration, a limiting dilution was performed over a 64-fold range (6-step twofold dilution) in a 96-well plate in two biological duplicates. Parasites were added at 100 µL to each well containing the compound to obtain a final parasitemia of 0.3% and haematocrit of 1.25%. The plates were incubated for 48 h before 0.25 µCi of [^3H]-hypoxanthine was added per well for an additional 24 h. Parasites were harvested on a glass-fiber filter with a Microbeta FilterMate cell harvester (Perkin Elmer, Waltham, USA) and radioactivity was counted using a MicroBeta2 liquid scintillation counter (Perkin Elmer, Waltham, US). […] The fifty percent inhibitory concentration (IC50) was calculated by using nonlinear, four parameter (variable slope) curve fitting as described ^[33^] after importing into GraphPad Prism (version 8.3.0).

Row | Structure (SMILES) | IC50 [nM] | fold increased activity compared to the initial hit molecule 1 (PfNF54 IC50)
1 | CCCCNS(=O)(=O)c1ccc(O)c(NC(=O)c2cccc(Oc3ccccc3)c2)c1 [Compound 8, N-(5-(N-Butylsulfamoyl)-2-hydroxyphenyl)-3-phenoxybenzamide] | 1910 ± 254 | 
2 | O=C(Nc1cc(S(=O)(=O)NCC2CCCCC2)ccc1O)c1cccc(Oc2ccccc2)c1 [Compound 13, N-(5-(N-(Cyclohexylmethyl)sulfamoyl)-2-hydroxyphenyl)-3-phenoxybenzamide] | > 10000 | 
3 | O=C(Nc1cc(S(=O)(=O)NCc2ccccc2)ccc1O)c1cccc(Oc2ccccc2)c1 [Compound 14, N-(5-(N-Benzylsulfamoyl)-2-hydroxyphenyl)-3-phenoxybenzamide] | 2780 ± 389 | 
4 | O=C(Nc1cc(S(=O)(=O)N2CCCC2)ccc1O)c1cccc(Oc2ccc(Cl)c(C(F)(F)F)c2)c1 [Compound 17, 3-(4-Chloro-3-(trifluoromethyl)phenoxy)-N-(2-hydroxy-5-(pyrrolidin-1-ylsulfonyl)phenyl)benzamide] | 2315 ± 8.5 | 
5 | O=C(Nc1cc(S(=O)(=O)N2CCCC2)ccc1O)c1cccc(Oc2cccc(C(F)(F)F)n2)c1 [Compound 21, N-(2-Hydroxy-5-(pyrrolidin-1-ylsulfonyl)phenyl)-3-((6-(trifluoromethyl)pyridin-2-yl)oxy)benzamide] | > 10000 | 
6 | Cc1cc(C(F)(F)F)cc(Oc2cccc(C(=O)Nc3cc(S(=O)(=O)N4CCCC4)ccc3O)c2)n1 [Compound 22, N-(2-hydroxy-5-(pyrrolidin-1-ylsulfonyl)phenyl)-3-((6-methyl-4-(trifluoromethyl)pyridin-2-yl)oxy)benzamide] | 216 ± 32.3 | 
7 | O=C(Nc1cc(S(=O)(=O)N2CCCC2)ccc1O)c1cccc(Oc2cc(C(F)(F)F)ccn2)c1 [Compound 23, N-(2-Hydroxy-5-(pyrrolidin-1-ylsulfonyl)phenyl)-3-((4-(trifluoromethyl)pyridin-2-yl)oxy)benzamide] | 69 | about 8 fold
8 | CC(C)c1ccc(O)c(NC(=O)c2cccc(Oc3cc(C(F)(F)F)ccn3)c2)c1 [Compound 25, N-(2-Hydroxy-5-isopropylphenyl)-3-((4-(trifluoromethyl)pyridin-2-yl)oxy)benzamide] | 34 ± 4 | 
9 | O=C(Nc1cc(-n2cnnc2)ccc1O)c1cccc(Oc2cc(C(F)(F)F)ccn2)c1 [Compound 26, N-(2-Hydroxy-5-(4H-1,2,4-triazol-4-yl)phenyl)-3-((4-(trifluoromethyl)pyridin-2-yl)oxy)benzamide] | 158 ± 15.6 | 
10 | CCN(CC)CCCNCc1ccc(O)c(NC(=O)c2cccc(Oc3cc(C(F)(F)F)ccn3)c2)c1 [Compound 28, N-(5-(((3-(diEthylamino)propyl)amino)methyl)-2-hydroxyphenyl)-3-((4-(trifluoromethyl)pyridin-2-yl)oxy)benzamide] | 41 ± 17.2 | 
11 | CN(Cc1ccc(O)c(NC(=O)c2cccc(Oc3cc(C(F)(F)F)ccn3)c2)c1)C1CCCCC1 [Compound 29, N-(5-((Cyclohexyl(methyl)amino)methyl)-2-hydroxyphenyl)-3-((4-(trifluoromethyl)pyridin-2-yl)oxy)benzamide] | 7.6 ± 1.8 | 
12 | O=C(Nc1cc(CN2CCOCC2)ccn1)c1cccc(Oc2cc(C(F)(F)F)ccn2)c1 [Compound 35, N-(4-(Morpholinomethyl)pyridin-2-yl)-3-((4-(trifluoromethyl)pyridin-2-yl)oxy)benzamide] | > 10000 | 
13 | Oc1ccc(CN2CCOCC2)cc1NCc1cccc(Oc2cc(C(F)(F)F)ccn2)c1 [Compound 36, 4-(Morpholinomethyl)-2-((3-((4-(trifluoromethyl)pyridin-2-yl)oxy)benzyl)amino)phenol] | 808 ± 172 | 
14 | Oc1ccc(CN2CCOCC2)cc1-n1cc(-c2cccc(Oc3cc(C(F)(F)F)ccn3)c2)nn1 [Compound 37, 4-(Morpholinomethyl)-2-(4-(3-((4-(trifluoromethyl)pyridin-2-yl)oxy)phenyl)-1H-1,2,3-triazol-1-yl)phenol] | 21 ± 1.13 | 

Continued, in another order:

Row | IC50 [nM] | Structure (SMILES) | fold increased activity compared to the initial hit molecule 1 (PfNF54 IC50)
15 | > 10000 | COc1ccc(S(=O)(=O)N2CCCC2)cc1NC(=O)c1cccc(Oc2ccccc2)c1 [Compound 2, N-(2-Methoxy-5-(pyrrolidin-1-ylsulfonyl)phenyl)-3-phenoxybenzamide] | 
16 | > 10000 | COc1ccc(S(=O)(=O)N2CCCC2)cc1N(C)C(=O)c1cccc(Oc2ccccc2)c1 [Compound 3, N-(2-methoxy-5-(pyrrolidin-1-ylsulfonyl)phenyl)-N-methyl-3-phenoxybenzamide] | 
17 | > 10000 | CN(C(=O)c1cccc(Oc2ccccc2)c1)c1cc(S(=O)(=O)N2CCCC2)ccc1O [Compound 4, N-(2-Hydroxy-5-(pyrrolidin-1-ylsulfonyl)phenyl)-N-methyl-3-phenoxybenzamide] | 
18 | 4930 ± 97.8 | O=C(Nc1cccc(S(=O)(=O)N2CCCC2)c1)c1cccc(Oc2ccccc2)c1 [Compound 5, 3-Phenoxy-N-(3-(pyrrolidin-1-ylsulfonyl)phenyl)benzamide] | 
19 | 777 ± 86 | NS(=O)(=O)c1ccc(O)c(NC(=O)c2cccc(Oc3ccccc3)c2)c1 [Compound 6, N-(2-Hydroxy-5-sulfamoylphenyl)-3-phenoxybenzamide] | 
20 | 217 ± 42.4 | CCS(=O)(=O)c1ccc(O)c(NC(=O)c2cccc(Oc3ccccc3)c2)c1 [Compound 7, N-(5-(Ethylsulfonyl)-2-hydroxyphenyl)-3-phenoxybenzamide] | 
21 | 574 ± 66.5 | O=C(Nc1cc(S(=O)(=O)N2CCCCC2)ccc1O)c1cccc(Oc2ccccc2)c1 [Compound 9, N-(2-Hydroxy-5-(piperidin-1-ylsulfonyl)phenyl)-3-phenoxybenzamide] | 
22 | 1410 ± 147 | CC1(C)CCN(S(=O)(=O)c2ccc(O)c(NC(=O)c3cccc(Oc4ccccc4)c3)c2)C1 [Compound 10, N-(5-((3,3-diMethylpyrrolidin-1-yl)sulfonyl)-2-hydroxyphenyl)-3-phenoxybenzamide] | 
23 | 1030 ± 116 | CC1CCN(S(=O)(=O)c2ccc(O)c(NC(=O)c3cccc(Oc4ccccc4)c3)c2)CC1 [Compound 11, N-(2-Hydroxy-5-((4-methylpiperidin-1-yl)sulfonyl)phenyl)-3-phenoxybenzamide] | 
24 | 197 ± 28 | O=C(Nc1cc(S(=O)(=O)N2CCOCC2)ccc1O)c1cccc(Oc2ccccc2)c1 [Compound 12, N-(2-Hydroxy-5-(morpholinosulfonyl)phenyl)-3-phenoxybenzamide] | 
25 | 539 ± 92.2 | O=C(Nc1cc(S(=O)(=O)N2CCCC2)ccc1O)c1ccc(Oc2ccccc2)cc1 [Compound 15, N-(2-Hydroxy-5-(pyrrolidin-1-ylsulfonyl)phenyl)-4-phenoxybenzamide] | 
26 | 361 ± 83 | O=C(Nc1cc(S(=O)(=O)N2CCCC2)ccc1O)c1cccc(Oc2cccc(F)c2)c1 [Compound 16, 3-(3-Fluorophenoxy)-N-(2-hydroxy-5-(pyrrolidin-1-ylsulfonyl)phenyl)benzamide] | 
27 | 1500 ± 81.2 | Cc1ccc(C(C)C)cc1Oc1cccc(C(=O)Nc2cc(S(=O)(=O)N3CCCC3)ccc2O)c1 [Compound 18, N-(2-hydroxy-5-(pyrrolidin-1-ylsulfonyl)phenyl)-3-(5-isopropyl-2-methylphenoxy)benzamide] | 
28 | 1450 ± 80 | O=C(Nc1cc(S(=O)(=O)N2CCCC2)ccc1O)c1cccc(Oc2ccccn2)c1 [Compound 19, N-(2-Hydroxy-5-(pyrrolidin-1-ylsulfonyl)phenyl)-3-(pyridin-2-yloxy)benzamide] | 
29 | 746 ± 21.3 | O=C(Nc1cc(S(=O)(=O)N2CCCC2)ccc1O)c1cccc(Oc2cccc(Cl)n2)c1 [Compound 20, 3-((6-Chloropyridin-2-yl)oxy)-N-(2-hydroxy-5-(pyrrolidin-1-ylsulfonyl)phenyl)benzamide] | 
